Data: patent US20200062719A1, “Application of Imidazopyridine Derivatives in Regenerative Medicine” (University of Heidelberg, priority 2018, published 2020)

What was measured:
OCT4-promoter = assay: Luciferase reporter assay in HEK-OCT4 cells; format: cell-based; settings: HEK-OCT4, NCCIT-OCT4 and NCCIT-NANOG
Description: In an effort to find such chemical structures able to induce pluripotency, a high-throughput screening (HTS) was performed. The screen was based on cellular luciferase reporter assays under the control of the promoter activity of a pluripotency-associated transcription factor (Oct4) in HEK293 cells.
The inventors adopted Hantzsch thiazole synthesis (FIG. 20A) and produced a series of new O4I2-ester derivatives (FIG. 20B). Their activities were measured in three luciferase report cell lines, namely HEK-OCT4, driven by the activation of OCT4-promoter, and NCCIT-OCT4 and NCCIT-NANOG, whose intensities are controlled by endogenous OCT4 and NANOG respectively. […] Carboxylesterase 1 (CES1) is an enzyme majorly contributing to ester-to-acid conversion.

[1] = Expression of pluripotency genes in unmodified NCCIT cells; format: cell-based, human
Text: Consistently, in unmodified NCCIT cells O4I4 forced the expression of OCT4 (3-fold increase as compared to 0.1% DMSO treatment) and NANOG (30-fold increase) as well as other pluripotency-related genes, like E-CADHERIN, SOX2, REX1 and STAT3, 0414-mediated enrichment of OCT4 and NANOG, as well as SOX2 and E-CADHERIN, was also detected by fluorescence-activated cell sorting. […] It was reported that removal of bFGF led to the loss of pluripotency-marker expression in hPSCs, including OCT4, SOX2, E-CADHERIN and NANOG, which however was rescued in the presence of O4I4 (FIG. 21A), indicating a positive function of O4I4 in maintaining the pluripotency-associated transcriptional circuitry in hPSC.
Quantitative reverse-transcription real-time-PCR was performed using a Light Cycler 96 (Roche, Germany) following the manufacturer's protocol. Briefly, total RNA was isolated from cells using TRIzol (Qiagen, Germany) or NucleoSpin®RNA Plus (Macherey-Nagel, Germany). The same amount of RNA was used to reverse-transcriptional synthesize cDNA by using random primers ProtoScript® First Strand cDNA Synthesis Kit (NEB, Germany). qPCR was performed using the SYBR Green PCR master mix (qPCRBIO SyGreen Mix Lo-Rox, Nippon Genetics, Germany) and the primer pairs indicated below (MWG, Eurofins, Germany). Actin was used as an endogenous control. […]

C. elegans [2] = assay: C. elegans survival assay under oxidative stress (juglone); format: in vivo
Description: Eggs were released by lysing gravid adults with bleaching for 10 min. Resuspended eggs in sterile M9 buffer and incubated at 20° C. for 16-18 h. After all the worms were synchronized at the same L1 larval stage, transferred them into the liquid S-media which contents E. coli OP50 (0D600=0.8-1.2). Then, synchronized worms were treated with DMSO, 50 μg/ml epigallocatechin gallate (EGCG) or O4I4 (5 μM, 10 μM, and 20 μM) for further experiments.
After 48 h treatment, around 60 wild-type C. elegans (N2) worms in each sample were transferred into a new liquid S-media which contains 80 μM of superoxide-generating compound juglone (5-hydroxy-1,4-naphthalenedione) for 24 h. If a worm has response via a gentle touch with platinum wire, it is considered as a live worm. Conversely, a dead worm was considered by no response. The function of the survival rate is shown below.

C. elegans [3] = assay: C. elegans lifespan assay; format: in vivo; settings: 0.5 μM
Description: O4I4 (0.5 μM) were continuously added in medium until all the worms die. During the experiment period, every two days or three days, worms were counted either live or die by responding to a gentle touch with a platinum wire.

daf-16 = assay: Daf-16 localization assay in C. elegans TJ356; format: in vivo
Description: In this experiment, transgenic worms TJ356 (Daf-16::GFP) are employed to study our target substance affects the localization of daf-1 6. After 24 h treatment, worms were transferred to a glass slide and paralyzed with 10 mM sodium azide. BZ9000 fluorescence microscope was used to observe the localization of daf-1 6. In each sample, around 50 worms were scored for three localization patterns: cytoplasmic, intermediate and nuclear.

Oct4 = assay: Immunoblotting of OCT4 protein in human primary fibroblasts; format: cell-based
Description: In human primary fibroblasts, O4I4 promoted the expression of pluripotency-associated genes, including OCT4, SOX2, NANOG, LIN28, E-CADHERIN, REX1 and SALL4. […] FACS analysis further confirmed the O4I4-mediated induction of OCT4 and E-CADHERIN.
iPSCs were lysed using urea-lysis buffer (1 mM EDTA, 0.5% Triton X-100, 5 mM NaF, 6 M Urea, 1 mM Na3VO4, 10 μg/mL Pepstatin, 100 μM PMSF and 3 μg/mL Aprotinin in PBS). Enhanced chemiluminescence (ECL) immunoblot analysis was performed. 40 μg of total protein was resolved on 12% SDS-PAGE gels and immunoblotted with antibodies. […] antibody was used as loading control. Primary antibodies were incubated at 1:1000 dilution in TBS (pH 7.5) with 0.1% Tween-20 and 5% BSA/milk with gentle agitation overnight at 4° C. Secondary antibodies (Dianova, Germany) were incubated in TBS (pH 7.5) with 5% Milk and 0.1% Tween-20 at a 1:10,000 dilution for 1 h at room temperature.

Cc1cccc(Nc2nc(C(C)(C)C)cs2)c1C [O4I4]
activity in three luciferase reporter cell lines (OCT4-promoter): among the most active compounds
expression of NANOG, increase as compared to 0.1% DMSO treatment [1]: 30 fold
expression of OCT4, increase as compared to 0.1% DMSO treatment [1]: 3 fold
survival ratio under oxidative stress (C. elegans [2]): increased survival ratio
lifespan (C. elegans [3]): life extension
localization of daf-16 (daf-16): nucleic translocation
OCT4 protein (Oct4): dose-dependent increase
